Assay results reported in PubChem BioAssay AID488818 (NMMLSC, 2010).
The source made the active and inactive calls.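 The calls were made as follows: active = fluorescence change from solvent-only control to top dose above 25; inactive = the rest.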

Tested on: S. cerevisiae s288c autofluorescence, flow cytometry MCF, 3 h
Experiment: fluorescence artefact check, untagged yeast strain – cherry pick 3, multiplex, flow cytometry, artefact control for yeast TOR pathway GFP screen, SAR follow-up (AID 488818)
Details: at 33.3 µM; active compounds read high

SMILES	fluorescence change
Cn1cccc1C(=O)Nc1nc(-c2ccccn2)cs1	0.3 (inactive)
Cc1ccc(NN2C(=O)C=C(c3ccccc3)C2=O)cc1	0.65 (inactive)
Cc1ccc2c(Cl)cc(Cl)c(O)c2n1	0.81 (inactive)
COc1ccc(OC)c(Nc2nc(NCCC(C)C)nc(N)c2[N+](=O)[O-])c1	0.12 (inactive)
CNc1nc(C)c([N+](=O)[O-])c(Nc2ccc(OC)cc2)n1	0.06 (inactive)
COc1ccccc1Nc1nc(NCCO)nc(N)c1[N+](=O)[O-]	0.19 (inactive)
COc1ccc(OC)c2c(=O)cc(C(=O)O)[nH]c12	0.06 (inactive)
COc1cccc2c(Cl)c(CCCl)c(C)nc12	0.24 (inactive)
CNc1nc(N)c([N+](=O)[O-])c(Nc2cccc(Cl)c2)n1	0.08 (inactive)
COc1ccccc1-c1cc(C(F)(F)F)nc(S(=O)(=O)CCCC(=O)NC(C)C)n1	0.18 (inactive)
N#Cc1c(N)nc(N)nc1Nc1ccc(Br)cc1	0.12 (inactive)
Oc1c(Cl)cc(Cl)c2cccnc12	2.85 (inactive)
COCCNc1nc(N)c([N+](=O)[O-])c(Nc2ccc(F)cc2)n1	0.18 (inactive)
COc1ccc(Nc2nc(NN)nc(C)c2[N+](=O)[O-])cc1	0.06 (inactive)
CC(=O)NC(C)c1cc(Cl)c2cccnc2c1O (stereo unspecified)	0.25 (inactive)
CCC(C)Nc1nc(N)c([N+](=O)[O-])c(Nc2ccccc2OC)n1 (stereo unspecified)	0.06 (inactive)
O=C(O)c1ccc2cccnc2c1O	0.12 (inactive)
Cc1cccc(C)c1Nc1ncnc(N)c1[N+](=O)[O-]	0.12 (inactive)
Nc1ncnc(Nc2cc(Cl)cc(Cl)c2)c1[N+](=O)[O-]	0.12 (inactive)
Cc1nc2c(O)cccc2cc1CO	0.06 (inactive)
CCc1sc(C(=O)Nc2nc(-c3ccccn3)cs2)cc1C	0.65 (inactive)

SMILES	fluorescence change
COc1ccccc1-c1cc(C(F)(F)F)nc(S(=O)(=O)CCCC(=O)O)n1	0.5 (inactive)
COCCCNc1nc(N)c([N+](=O)[O-])c(Nc2ccccc2OC)n1	0.06 (inactive)
Oc1ccc(F)c2cccnc12	0.06 (inactive)
Nc1nc(NCCOCCO)nc(Nc2cccc(F)c2)c1[N+](=O)[O-]	0.12 (inactive)
Cc1ccc(C(=O)Nc2nc(-c3ccccn3)cs2)o1	0.24 (inactive)
COc1ccccc1Nc1nc(NCCC(C)C)nc(N)c1[N+](=O)[O-]	0.07 (inactive)
CCC(C)Nc1nc(N)c([N+](=O)[O-])c(Nc2cc(OC)ccc2OC)n1 (stereo unspecified)	0.8 (inactive)
Oc1ccc(Cl)c2cccnc12	0.19 (inactive)
Cc1ccc2c(C)ccc(O)c2n1	0 (inactive)
CCOC(=O)CS(=O)(=O)c1nc(-c2ccccc2)cc(C(F)(F)F)n1	0.24 (inactive)
CC1=NNC(=O)/C1=C\c1cn(-c2ccccc2)nc1-c1ccc(F)cc1	0.24 (inactive)
Cc1nc(Nc2ccc(Br)cc2Br)c([N+](=O)[O-])c(=O)[nH]1	0 (inactive)
O=C(O)c1ccc2cccc(O)c2n1	0.18 (inactive)
Oc1c(I)cc(Cl)c2cccnc12	2.85 (inactive)
COCC(C)NC(=O)CCS(=O)(=O)c1nc(-c2ccc(OC)cc2)cc(C(F)(F)F)n1 (stereo unspecified)	0.12 (inactive)
NC(=O)c1ccnc2c(O)cccc12	0.06 (inactive)
O=C(Nc1nc(-c2ccccn2)cs1)c1ccccc1-n1cnnn1	0.07 (inactive)
CCCOCc1ccc(O)c2ncccc12	0.25 (inactive)
CNc1nc(N)c([N+](=O)[O-])c(Nc2ccccc2OC)n1	0.08 (inactive)
Oc1c(Br)cc(Br)c2cccnc12	3.5 (inactive)
